Results reported in patent US12090195B2 (priority 2018, dated 2024).

Assays:
mice = conditions: mouse, in vivo, ip; cited from earlier work
[1] = system: six microorganisms (bacteria, yeast, fungus); format: cell-based

Row | SMILES | LD50 (mice) [mg/kg] | antimicrobial activity against yeast and fungi [1]
1 | COC(=O)c1ccc(O)cc1 [methyl paraben] | 1000 | –
2 | OCCOc1ccccc1 [Combination 2-PE, 2-Phenoxyethanol] | – | weaker antimicrobial activity than Thiomersal
